Consider one compound from article PMC10779433, “Bidirectional Allosteric Coupling between PIP2 Binding and the Pore of the Oncochannel TRPV6” (International Journal of Molecular Sciences, 2024).

One experiment relates to TRPV6 R492Q. The experiment in a line: NFAT screen, TRPV6 R492Q. The experiment is classed as cell-based, human. The settings on record: HEK293 cells; 5 μM cis-22a, 2 h, vs DMSO. Here is the method: (§1) N-terminally TagRFP-labeled human TRPV6 (725 aa) was kindly provided by R. Bhardwaj and M. Hediger (University of Bern, Bern, Switzerland). This variant is translated from the first ATG codon and thus deviates from the non-ATG-initiated protein which is expressed in vivo (accession number NM_018646.6) by lacking 40 amino acids of the very N-terminus. For N-terminal labeling with EYFP, TRPV6 was cloned into pEYFP-C1 (Clontech) via EcoRI and SacII restriction sites. […]
(§2) After incubation, cover slips were carefully rinsed with phenol red-free DMEM supplemented with the compound and dosage corresponding to the previous incubation, which was then also present during imaging. […] Subcellular NFAT localization of TRPV6 expressing cells was again monitored on an Axiovert 135 inverted microscope (Zeiss, Oberkochen, Germany), as described in more detail before. […] Images were analyzed using Matlab2018a, differentiating between three cell populations based on the ratio of CFP emission intensity originating from the nucleus and the cytosol, similar to Schober et al. (2019).

Experiment [1] deals with TRPV6 R470A. To be noted: HEK293 cells, ref [47], cited from earlier work. An excerpt:
(§3) Thereby, some mutants which were investigated in our previous publications are shown again to simplify comparison with other treatments.

In the next experiment the test system is TRPV6 K484A. To be noted: HEK293 cells, ref [62], cited from earlier work.
From the text: as §3

Experiment [2] has as its system TRPV6 R470A. Briefly: NFAT screen, TRPV6 R470A. The experiment is classed as cell-based, human. The settings on record: HEK293 cells; 5 μM cis-22a, 2 h, vs DMSO. Here is the method: as §1, §2
Another experiment concerns TRPV6 W583F. Further details: method as in PMID 33246965. The settings on record: ref [47], cited from earlier work.
Another experiment has as its system TRPV6 I575A. The experiment in a line: NFAT screen, TRPV6 I575A. The experiment is classed as cell-based, human. To be noted: HEK293 cells; 5 μM cis-22a, 2 h, vs DMSO. On the procedure: as §1, §2
Another experiment deals with TRPV6 D580K. Further details: method as in PMID 33246965. To be noted: HEK293 cells; 0.1 μM and 10 μM cis-22a; Figure 5B; ref [47]; cited from earlier work.
The subject of another experiment is TRPV6 G488R. The settings on record: ref [62]; cited from earlier work. The text has this:
As mentioned before, the G488R mutation resides within the segment linking the fourth and fifth transmembrane domain of TRPV6. Importantly, different examples exist throughout the entire TRP superfamily, highlighting the importance of the corresponding protein section for a proper channel function, for instance, by serving as a binding site for different agonists or antagonists.

A further experiment deals with TRPV6 G579A. The experiment in a line: NFAT screen, TRPV6 G579A. The experiment is classed as cell-based, human. The settings on record: HEK293 cells; 5 μM cis-22a, 2 h; homogeneous localization preferred already without cis-22a. Here is the method:
as §1, §2

Where two headings read alike, the source gives them in different places.

Regarding `Cc1cccc(C2CCC(N3CCN(c4cccnc4)CC3)CC2)c1.O=C(O)C(F)(F)F` (stereo not drawn) [cis-22a], the “reduction of nuclear NFAT localization” value in the experiment with TRPV6 R492Q and in the experiment with TRPV6 R470A [2] was “failed to significantly reduce NFAT nuclear localization” each time. Also, the “current inhibition vs TRPV6 WT” value is reported as “significantly reduced” with TRPV6 R470A [1] (0.1 μM cis-22a); “significantly reduced inhibition” with TRPV6 R470A [1] (10 μM cis-22a, after 0.1 μM); “significantly reduced” in the experiment on TRPV6 K484A (0.1 μM cis-22a); “significantly reduced inhibition” in the experiment with TRPV6 K484A (10 μM cis-22a, after 0.1 μM). Also, the “response to cis-22a vs TRPV6 WT” value with TRPV6 W583F (HEK293 cells, 0.1 μM and 10 μM cis-22a, Figure 5B) is reported as “significantly reduced response”; with TRPV6 D580K it was “significantly reduced response”. Besides, the half-inhibitory concentration (IC50) in the experiment on TRPV6 W583F (TRPV6 W583F) was approximately 6.19 µM. For the same compound, the “change of nuclear NFAT localization” value in the experiment with TRPV6 I575A is recorded as “not significantly changed”; in the experiment on TRPV6 G579A, “further significant reduction in the proportion of cells showing nucleus-resident NFAT”. The “sensitivity to cis-22a (in words)” value in the experiment on TRPV6 G488R was “largely insensitive”.
